Values quoted from earlier work as cited in patent US11708332B2, “Human plasma kallikrein inhibitors” (BioCryst Pharmaceuticals, Inc., priority 2014, dated 2023).

How the values were obtained:
[1] = test system: hereditary angioedema (HAE)
[2] = test system: lipopolysaccharide (LPS)- or bacterial-induced sepsis; settings: LPS- or bacterial-induced sepsis in animals
[3] = test system: middle cerebral artery occlusion (MCAO); settings: mouse model of MCAO

Molecule: NC(N)=NCCC[C@@H](N)C(=O)N[C@@H](CCCN=C(N)N)C(=O)N1CCC[C@H]1C(=O)N1C[C@H](O)C[C@H]1C(=O)NCC(=O)N[C@@H](Cc1cccs1)C(=O)N[C@@H](CO)C(=O)N1Cc2ccccc2C[C@@H]1C(=O)N1[C@H](C(=O)N[C@@H](CCCN=C(N)N)C(=O)O)C[C@@H]2CCCC[C@@H]21 [Icatibant]
- effectiveness in treating HAE ([1]; HAE): effective

Molecule: H-D-Pro-Phe-Arg-chloromethylketone
- lesions [2]: reduce

Molecule: ecallantide [DX-88]
- edema in patients with hereditary angioedema (HAE) ([1]; patients with HAE): alleviates edema

B1: Cl-inhibitor: "Cl-inhibitor reduced infarct size in a mouse model of middle cerebral artery occlusion (MCAO)" (protein, UniProt P05155 23-500, looked up)
Plasma protease C1 inhibitor: NPNATSSSSQDPESLQDRGEGKVATTVISKMLFVEPILEVSSLPTTNSTTNSATKITANTTDEPTTQPTTEPTTQPTIQPTQPTTQLPTDSPTQPTTGSFCPGPVTLCSDLESHSTEAVLGDALVDFSLKLYHAFSAMKKVETNMAFSPFSIASLLTQVLLGAGENTKTNLESILSYPKDFTCVHQALKGFTTKGVTSVSQIFHSPDLAIRDTFVNASRTLYSSSPRVLSNNSDANLELINTWVAKNTNNKISRLLDSLPSDTRLVLLNAIYLSAKWKTTFDPKKTRMEPFHFKNSVIKVPMMNSKKYPVAHFIDQTLKAKVGQLQLSHNLSLVILVPQNLKHRLEDMEQALSPSVFKAIMEKLEMSKFQPTLLTLPRIKVTTSQDMLSIMEKLEFFDFSYDLNLCGLTEDPDLQVSAMQHQTVLELTETGVEAAAASAISVARTLLVFEVQQPFLFVLWDQQHKFPVFMGRVYDPRA
- infarct size [3]: reduced

B2: C1-inhibitor: "a physiological inhibitor (C1-inhibitor)" (protein, UniProt P05155 23-500, looked up)
Plasma protease C1 inhibitor: NPNATSSSSQDPESLQDRGEGKVATTVISKMLFVEPILEVSSLPTTNSTTNSATKITANTTDEPTTQPTTEPTTQPTIQPTQPTTQLPTDSPTQPTTGSFCPGPVTLCSDLESHSTEAVLGDALVDFSLKLYHAFSAMKKVETNMAFSPFSIASLLTQVLLGAGENTKTNLESILSYPKDFTCVHQALKGFTTKGVTSVSQIFHSPDLAIRDTFVNASRTLYSSSPRVLSNNSDANLELINTWVAKNTNNKISRLLDSLPSDTRLVLLNAIYLSAKWKTTFDPKKTRMEPFHFKNSVIKVPMMNSKKYPVAHFIDQTLKAKVGQLQLSHNLSLVILVPQNLKHRLEDMEQALSPSVFKAIMEKLEMSKFQPTLLTLPRIKVTTSQDMLSIMEKLEFFDFSYDLNLCGLTEDPDLQVSAMQHQTVLELTETGVEAAAASAISVARTLLVFEVQQPFLFVLWDQQHKFPVFMGRVYDPRA
- lesions [2]: reduce
